This experiment addresses T1, Trx-6×His-BCL6 (human BCL6 BTB domain covering amino-acid sequence 5-129) (Homo sapiens, UniProt P41182).
T1 construct: made in house
The experiment can be described thus: HTRF assay (BCL6 / BCOR peptide). The experiment is classed as binding. To be noted: 1 nM Trx-6×His-BCL6, 300 nM BCOR-AF633 peptide, 2 hours incubation at room temperature; for IC50: read-out: HTRF avg pIC50 (converted). Here is the method: After 2 hours incubation at room temperature the plate was read on a Pherastar FSX (BMG Labtech) plate reader equipped with 337 nm laser excitation filter, a first emission filter at 620 nm and a second emission filter at 665 nm. The % inhibition at each concentration was calculated by normalising FRET ratio to the appropriate high (DMSO with all reagents) and low (DMSO without BCL6) controls.

As for `CC1CN(c2ncc(Cl)c(Nc3ccc4c(c3)c3c(c(=O)n4C)OCC(F)(F)[C@H](C4CC4)N3)n2)CCS1` (mixture of isomers) [Example 12f, (S)-10-((5-chloro-2-((R)-2-methylthiomorpholino)pyrimidin-4-yl)amino)-2-cyclopropyl-3,3-difluoro-7-methyl-1,2,3,4-tetrahydro-[1,4]oxazepino[2,3-c]quinolin-6(7H)-one:(S)-10-((5-chloro-2-((S)-2-methylthiomorpholino)pyrimidin-4-yl)amino)-2-cyclopropyl-3,3-difluoro-7-methyl-1,2,3,4-tetrahydro-[1,4]oxazepino[2,3-c]quinolin-6(7H)-one (1:1)], the IC50 was 9.55 nM. On the same count and under the same terms, next, `Cn1c(=O)c2c(c3cc(Nc4nc(N5CCN6CCCC6C5)ncc4Cl)ccc31)N[C@@H](C1CC1)C(F)(F)CO2` (mixture of isomers) [Example 12h, (S)-10-((5-chloro-2-((S)-hexahydropyrrolo[1,2-a]pyrazin-2(1H)-yl)pyrimidin-4-yl)amino)-2-cyclopropyl-3,3-difluoro-7-methyl-1,2,3,4-tetrahydro-[1,4]oxazepino[2,3-c]quinolin-6(7H)-one:(S)-10-((5-chloro-2-((R)-hexahydropyrrolo[1,2-a]pyrazin-2(1H)-yl)pyrimidin-4-yl)amino)-2-cyclopropyl-3,3-difluoro-7-methyl-1,2,3,4-tetrahydro-[1,4]oxazepino[2,3-c]quinolin-6(7H)-one (1:1)]: 2.04 nM. `Cn1c(=O)c2c(c3cc(Nc4nc(N5CCN6C(=O)CCC6C5)ncc4Cl)ccc31)N[C@@H](C1CC1)C(F)(F)CO2` (mixture of isomers) [Example 12i, (S)-10-((5-chloro-2-((R)-6-oxohexahydropyrrolo[1,2-a]pyrazin-2(1H)-yl)pyrimidin-4-yl)amino)-2-cyclopropyl-3,3-difluoro-7-methyl-1,2,3,4-tetrahydro-[1,4]oxazepino[2,3-c]quinolin-6(7H)-one:(S)-10-((5-chloro-2-((S)-6-oxohexahydropyrrolo[1,2-a]pyrazin-2(1H)-yl)pyrimidin-4-yl)amino)-2-cyclopropyl-3,3-difluoro-7-methyl-1,2,3,4-tetrahydro-[1,4]oxazepino[2,3-c]quinolin-6(7H)-one (1:1)]: the IC50 was 1.29 nM.

Regarding `Cn1c(=O)c2c(c3cc(Nc4nc(N5CC(O)CC6(CCC6)C5)ncc4Cl)ccc31)N[C@@H](C1CC1)C(F)(F)CO2` (mixture of isomers) [Example 12j, (S)-10-((5-chloro-2-((R)-8-hydroxy-6-azaspiro[3.5]nonan-6-yl)pyrimidin-4-yl)amino)-2-cyclopropyl-3,3-difluoro-7-methyl-1,2,3,4-tetrahydro-[1,4]oxazepino[2,3-c]quinolin-6(7H)-one:(S)-10-((5-chloro-2-((S)-8-hydroxy-6-azaspiro[3.5]nonan-6-yl)pyrimidin-4-yl)amino)-2-cyclopropyl-3,3-difluoro-7-methyl-1,2,3,4-tetrahydro-[1,4]oxazepino[2,3-c]quinolin-6(7H)-one (1:1)], the IC50 is 2.63 nM. The same measure, in the same setting: the same measure for `CC(=O)N1CC2CCC(C1)N2c1ncc(Cl)c(Nc2ccc3c(c2)c2c(c(=O)n3C)OCC(F)(F)[C@H](C3CC3)N2)n1` (single isomer, unassigned) [Example 7a]: 0.776 nM; for `CC(=O)N1C2CCC1CN(c1ncc(Cl)c(Nc3ccc4c(c3)c3c(c(=O)n4C)OCC(F)(F)[C@H](C4CC4)N3)n1)C2` (single isomer, unassigned) [Example 7b]: 1.62 nM; for `CC1CC(CC(=O)N2CCC2)CN(c2ncc(Cl)c(Nc3ccc4c(c3)c3c(c(=O)n4C)OCC(F)(F)[C@H](C4CC4)N3)n2)C1` (single isomer, unassigned) [Example 12x16a]: 2.04 nM. Same read-out and setting: next, `CC1CC(CC(=O)N2CCC2)CN(c2ncc(Cl)c(Nc3ccc4c(c3)c3c(c(=O)n4C)OCC(F)(F)[C@H](C4CC4)N3)n2)C1` (single isomer, unassigned) [Example 12x16b]: 5.37 nM; `CC1CC(CC(=O)N2CC(F)(F)C2)CN(c2ncc(Cl)c(Nc3ccc4c(c3)c3c(c(=O)n4C)OCC(F)(F)[C@H](C4CC4)N3)n2)C1` (single isomer, unassigned) [Example 12x17a]: 3.98 nM; `CC1CC(CC(=O)N2CC(F)(F)C2)CN(c2ncc(Cl)c(Nc3ccc4c(c3)c3c(c(=O)n4C)OCC(F)(F)[C@H](C4CC4)N3)n2)C1` (single isomer, unassigned) [Example 12x17b]: 13.2 nM.

As for `C[C@H]1CN(c2ncc(Cl)c(Nc3ccc4c(c3)c3c(c(=O)n4C)OCC(F)(F)[C@H](C4CC4)N3)n2)CCC1(F)F` (single isomer, unassigned) [Example 14a, (S)-10-((5-chloro-2-((S)-4,4-difluoro-3-methylpiperidin-1-yl)pyrimidin-4-yl)amino)-2-cyclopropyl-3,3-difluoro-7-methyl-1,2,3,4-tetrahydro-[1,4]oxazepino[2,3-c]quinolin-6(7H)-one or (S)-10-((5-chloro-2-((R)-4,4-difluoro-3-methylpiperidin-1-yl)pyrimidin-4-yl)amino)-2-cyclopropyl-3,3-difluoro-7-methyl-1,2,3,4-tetrahydro-[1.4]oxazepino[2,3-c]quinolin-6(7H)-one], the “HTRF avg pIC50” value amounted to 7.81. On to `Cn1c(=O)c2c(c3cc(Nc4nc(N5CC(F)(F)C5)ncc4Cl)ccc31)N[C@@H](C1CC1)C(F)(F)CO2` [Example 1a, (S)-10-((5-chloro-2-(3,3-difluoroazetidin-1-yl)pyrimidin-4-yl)amino)-2-cyclopropyl-3,3-difluoro-7-methyl-1,2,3,4-tetrahydro-[1,4]oxazepino[2,3-c]quinolin-6(7H)-one], for which the IC50 was 10.2 nM. Still for that read-out and setting: the same measure for `Cn1c(=O)c2c(c3cc(Nc4nc(N5CCN(C6CC6)C(=O)C5)ncc4Cl)ccc31)N[C@@H](C1CC1)C(F)(F)CO2` [Example 1b, (S)-10-((5-chloro-2-(4-cyclopropyl-3-oxopiperazin-1-yl)pyrimidin-4-yl)amino)-2-cyclopropyl-3,3-difluoro-7-methyl-1,2,3,4-tetrahydro-[1,4]oxazepino[2,3-c]quinolin-6(7H)-one]: 1.95 nM. The same measure, in the same setting: the same measure for `C[C@H]1CN(c2ncc(Cl)c(Nc3ccc4c(c3)c3c(c(=O)n4C)OCC(F)(F)[C@H](C4CC4)N3)n2)CC(=O)N1C` [Example 1c, (S)-10-((5-chloro-2-((S)-3,4-dimethyl-5-oxopiperazin-1-yl)pyrimidin-4-yl)amino)-2-cyclopropyl-3,3-difluoro-7-methyl-1,2,3,4-tetrahydro-[1,4]oxazepino[2,3-c]quinolin-6(7H)-one]: 2.34 nM; for `Cn1c(=O)c2c(c3cc(Nc4nc(NCC(C)(C)O)ncc4Cl)ccc31)N[C@@H](C1CC1)C(F)(F)CO2` [Example 1d, (S)-10-((5-chloro-2-((2-hydroxy-2-methylpropyl)amino)pyrimidin-4-yl)amino)-2-cyclopropyl-3,3-difluoro-7-methyl-1,2,3,4-tetrahydro-[1,4]oxazepino[2,3-c]quinolin-6(7H)-one]: 3.63 nM. For the compound `Cn1c(=O)c2c(c3cc(Nc4nc(N5C[C@H]6C[C@@H]5CO6)ncc4Cl)ccc31)N[C@@H](C1CC1)C(F)(F)CO2` [Example 1e, (S)-10-((2-((1R,4R)-2-oxa-5-azabicyclo[2.2.1]heptan-5-yl)-5-chloropyrimidin-4-yl)amino)-2-cyclopropyl-3,3-difluoro-7-methyl-1,2,3,4-tetrahydro-[1,4]oxazepino[2,3-c]quinolin-6(7H)-one], the IC50 was 3.24 nM.

For the compound `CC(=O)N[C@H]1C[C@@H](C)CN(c2ncc(Cl)c(Nc3ccc4c(c3)c3c(c(=O)n4C)OCC(F)(F)[C@H](C4CC4)N3)n2)C1` [Example 1f, N-((3S,5R)-1-(5-chloro-4-(((S)-2-cyclopropyl-3,3-difluoro-7-methyl-6-oxo-1,2,3,4,6,7-hexahydro-[1,4]oxazepino[2,3-c]quinolin-10-yl)amino)pyrimidin-2-yl)-5-methylpiperidin-3-yl)acetamide], the “HTRF avg pIC50” value was found to be 8.60. In the case of `CC(=O)N[C@@H]1C[C@H](C)CN(c2ncc(Cl)c(Nc3ccc4c(c3)c3c(c(=O)n4C)OCC(F)(F)[C@H](C4CC4)N3)n2)C1` [Example 1g, N-((3R,5S)-1-(5-chloro-4-(((S)-2-cyclopropyl-3,3-difluoro-7-methyl-6-oxo-1,2,3,4,6,7-hexahydro-[1,4]oxazepino[2,3-c]quinolin-10-yl)amino)pyrimidin-2-yl)-5-methylpiperidin-3-yl)acetamide], the IC50 is 3.16 nM. `C[C@@H]1C[C@H](N(C)C)CN(c2ncc(Cl)c(Nc3ccc4c(c3)c3c(c(=O)n4C)OCC(F)(F)[C@H](C4CC4)N3)n2)C1` [Example 1h, (S)-10-((5-chloro-2-((3S,5R)-3-(dimethylamino)-5-methylpiperidin-1-yl)pyrimidin-4-yl)amino)-2-cyclopropyl-3,3-difluoro-7-methyl-1,2,3,4-tetrahydro-[1,4]oxazepino[2,3-c]quinolin-6(7H)-one]: the “HTRF avg pIC50” value worked out at 8.44. For `Cn1c(=O)c2c(c3cc(Nc4nc(N5CCC[C@H](O)C5)ncc4Cl)ccc31)N[C@@H](C1CC1)C(F)(F)CO2` [Example 1i, (S)-10-((5-chloro-2-((S)-3-hydroxypiperidin-1-yl)pyrimidin-4-yl)amino)-2-cyclopropyl-3,3-difluoro-7-methyl-1,2,3,4-tetrahydro-[1,4]oxazepino[2,3-c]quinolin-6(7H)-one], the “HTRF avg pIC50” value was determined as 8.51.

`Cn1c(=O)c2c(c3cc(Nc4nc(N5CCC[C@@H](O)C5)ncc4Cl)ccc31)N[C@@H](C1CC1)C(F)(F)CO2` [Example 1j, (S)-10-((5-chloro-2-((R)-3-hydroxypiperidin-1-yl)pyrimidin-4-yl)amino)-2-cyclopropyl-3,3-difluoro-7-methyl-1,2,3,4-tetrahydro-[1,4]oxazepino[2,3-c]quinolin-6(7H)-one]: the IC50 is 2.95 nM.

The record behind these values is US12528826B2, “[1,4]oxazepino[2,3-c]quinolinone derivatives as BCL6 inhibitors” (Cancer Research Technology Limited, priority 2019, dated 2026).
